For eleven compounds, EC50 and IC50 results are on record in patent publication US10030016B2 (Sunesis Pharmaceuticals, Inc., priority 2009, dated 2018).

What is called EC50 is the midpoint of the concentration-response curve. The IC50 is the concentration needed to halve the response being measured.

Assay [1] has as its system phospho-akt (Thr308) in PC-3 cells. Kind of assay: Inhibition of phospho-akt (Thr308) in PC-3 cells, MSD phospho-akt 308 ELISA kit. In kind it is cell-based. Particulars: 2 hours, no serum, read-out: EC50. In outline: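 PC-3 cells were seeded overnight in growth medium with 10% FBS, then exposed to compound serially diluted threefold in serum-free medium for 2 hours. Lysates were captured overnight at 4 degrees on MSD plates and phospho-Akt Thr308 was detected electrochemiluminescently, against DMSO high and 5 μM wortmannin low controls.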
(In an ELISA, binding on a coated surface is turned into a signal by an enzyme label.)

The next assay deals with PDK1 (Homo sapiens (Human), UniProt O15530). Kind of assay: PDK1 kinase assay (coupled PDK1/AKT/FAM-crosstide assay, IMAP fluorescence polarization). In kind it is biochemical. In outline: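 GST-tagged PDK1 (aa 51-359, 0.75 nM) was coupled to unphosphorylated GST-AKT2 140-467-PIFtide (10 nM) and 100 nM FAM-crosstide at 40 μM ATP, in Tris pH 7.2 buffer, for 30 min at 25 °C. Crosstide phosphorylation was read by IMAP fluorescence polarization (ΔmP) and fitted with a 4-parameter curve.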
PDK1, sequence (O15530 51-359): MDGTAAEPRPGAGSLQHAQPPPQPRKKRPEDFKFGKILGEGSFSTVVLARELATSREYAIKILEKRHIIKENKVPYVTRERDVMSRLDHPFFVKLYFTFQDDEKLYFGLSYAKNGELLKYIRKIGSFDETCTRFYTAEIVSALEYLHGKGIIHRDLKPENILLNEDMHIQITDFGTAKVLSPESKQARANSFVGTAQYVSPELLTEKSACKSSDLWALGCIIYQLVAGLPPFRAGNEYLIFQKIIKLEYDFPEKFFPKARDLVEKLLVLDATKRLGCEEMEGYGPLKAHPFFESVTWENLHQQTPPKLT
(In general: In fluorescence polarisation assays a small probe gives low polarisation when free and higher when bound to something large.)

Setting [2] is: Homo sapiens, inhibition of P308 Akt in PC-3 cells, MSD.
Setting [3] is: inhibition of phospo-PDK1 in vitro.
Setting [4] is: Homo sapiens, inhibition of P308 Akt in PC-3 cells using MSD.

Where a name gives a salt, the structure may show the parent alone. Read-outs that look alike come from different tables or passages of the source.

`CCCNC(=O)c1cccnc1NCc1cccc(-c2c[nH]c3ncccc23)c1` [Example 1.9, N-propyl-2-{[3-(1H-pyrrolo[2,3-b]pyridin-3-yl)benzyl]amino}pyridine-3-carboxamide]: the concentration for a half-maximal effect (EC50) in assay [1] (setting [2]) fell in the range of 1000 to 10000 nM. At PDK1 (setting [3]), the IC50 is over 5000 nM.

Take `Nc1n[nH]c2ncc(-c3ccc(CNc4ncc(C(F)(F)F)cc4C(=O)NCC4CCCC4)cc3)cc12` [Example 264, 2-(4-(3-amino-1H-pyrazolo [3,4-b]pyridin-5-yl)benzylamino)-N-(cyclopentylmethyl)-5-(trifluoromethyl) nicotinamide]: in assay [1] (setting [4]), the EC50 was in the range of 1000 to 10000 nM. Moreover, the IC50 against PDK1 (inhibition of PDK1 in vitro) was under 100 nM.

`Nc1ncnc2ccc(-c3csc(Nc4ncccc4C(=O)NCc4ccc(F)c(F)c4)n3)cc12` [Ex. 13, 2-(4-(4-aminoquinazolin-6-yl)thiazol-2-ylamino)-N-(3,4-difluorobenzyl)-nicotinamide]: in assay [1] (setting [2]), the EC50 was over 10000 nM. For the same compound, the half-maximal inhibitory concentration (IC50) on PDK1 (setting [3]) was in the range of 1000 to 5000 nM.

On to `Nc1ncnc2ccc(-c3ccc(CNc4ncccc4C(=O)NCCN4CCCC4)s3)cc12` [Example 3.36, 2-({[5-(4-aminoquinazolin-6-yl)thiophen-2-yl]methyl}amino)-N-[2-(pyrrolidin-1-yl)ethyl] pyridine-3-carboxamide (TFA salt)], for which, in assay [1] (setting [2]), the EC50 lay in the range of 1000 to 10000 nM. Moreover, the IC50 against PDK1 (setting [3]) was over 5000 nM.

For the compound `N#Cc1cnc(NCc2ccc(-c3cnc4[nH]nc(N)c4c3)cc2)c(C(=O)Nc2ccc(Cl)cc2)n1` [Example 426, 3-(4-(3-amino-1H-pyrazolo[3,4-b]pyridin-5-yl)benzylamino)-N-(4-chlorophenyl)-6-cyanopyrazine-2-carboxamide], in assay [1] (setting [4]), the EC50 is under 1000 nM. At PDK1 (inhibition of PDK1 in vitro), this compound came in with an IC50 of under 100 nM.

With `C[C@H](NC(=O)c1cc(C#N)cnc1NCc1ccc(-c2c[nH]c3ncnc(N)c23)c(F)c1)c1ccc(F)cc1` [Example 100, (S)-2-(4-(4-amino-7H-pyrrolo[2,3-d]pyrimidin-5-yl)-3-fluorobenzylamino)-5-cyano-N-(1-(4-fluorophenyl)ethyl) nicotinamide], the EC50 in assay [1] (inhibition of P308 Akt in PC-3 cells using MSD) lay within 1000 to 10000 nM. The IC50 on PDK1 (inhibition of PDK1 in vitro) is under 100 nM.

On to `C[C@H](NC(=O)c1nc(C#N)cnc1N[C@H](C)c1ccc(-c2c[nH]c3ncnc(N)c23)cc1)c1ccc(F)c(F)c1` [Example 402, 3-((R)-1-(4-(4-amino-7H-pyrrolo[2,3-d]pyrimidin-5-yl)phenyl)ethylamino)-6-cyano-N-((S)-1-(3,4-difluorophenyl)ethyl)pyrazine-2-carboxamide], for which the concentration for a half-maximal effect (EC50) in assay [1] (setting [4]) is under 1000 nM. The same compound displayed an IC50 on PDK1 (inhibition of PDK1 in vitro) of under 100 nM.

In the case of `NCCNc1n[nH]c2ncc(-c3ccc(CNc4ncc(C(F)(F)F)cc4C(=O)NCc4ccc(F)c(F)c4)cc3)cc12` [Example 153, 2-(4-(3-(2-amino-ethylamino)-1H-pyrazolo [3,4-b]pyridin-5-yl)benzylamino)-N-(3,4-difluorobenzyl)-5-(trifluoromethyl) nicotinamide], the EC50 in assay [1] (setting [4]) was in the range of 1000 to 10000 nM. The compound also displayed an IC50 on PDK1 (inhibition of PDK1 in vitro) of under 100 nM.

As to `Nc1n[nH]c2ncc(-c3ccc(CNc4ncc(C(F)(F)F)cc4C(=O)NCc4cscn4)cc3)cc12` [Example 273, 2-(4-(3-amino-1H-pyrazolo [3,4-b]pyridin-5-yl)benzylamino)-N-(thiazol-4-ylmethyl)-5-(trifluoromethyl) nicotinamide], the EC50 in assay [1] (setting [4]) was 1000 to 10000 nM. The compound also came in with an IC50 against PDK1 (inhibition of PDK1 in vitro) of under 100 nM.

As to `Nc1n[nH]c2ncc(-c3ccc(CNc4ncc(C(F)(F)F)cc4C(=O)NCC4CC4)cc3)cc12` [Example 272, 2-(4-(3-amino-1H-pyrazolo [3,4-b]pyridin-5-yl)benzylamino)-N-(cyclopropylmethyl)-5-(trifluoromethyl) nicotinamide], the EC50 in assay [1] (setting [4]) was in the range of 1000 to 10000 nM. At PDK1 (inhibition of PDK1 in vitro), this compound had an IC50 of 100 to 1000 nM.

`NCCCc1nc(-c2ccc(CNc3ncc(C(F)(F)F)cc3C(=O)Nc3ccc(F)cc3)cc2)cnc1N` [Example 73, 2-{4-[5-Amino-6-(3-amino-propyl)-pyrazin-2-yl]-benzyl-amino}-N-(4-fluoro-phenyl)-5-trifluoromethyl-nicotinamide]: the EC50 in assay [1] (setting [4]) was under 1000 nM. The compound further gave an IC50 against PDK1 (inhibition of PDK1 in vitro) of under 100 nM.
